Consider 5 compounds from ChEMBL document CHEMBL1201862, “PubChem BioAssay data set” (2004).

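Five concentrations, 48 hours, 96-well plates. GI50 is the concentration that inhibits growth by half.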 Calls of active or inactive are those of the source. Rule as the data show it: active = GI50 up to about 1.1 µM and inactive = higher.

Among the test systems are SF-268; OVCAR-8; U-251; NCI/ADR-RES; SR; UACC-62; LOX IMVI; MDA-MB-231; SF-539; UO-31; HT-29; 786-0; SK-MEL-2; SW-620; SK-MEL-5; MDA-MB-435; MDA-N; CAKI-1; CCRF-CEM; SNB-75.
Test in all cases: NCI-60 cell line screen, 48 h

In the case of `O=C1/C(=C/c2ccc(OC(=O)c3ccccc3)cc2)CCC/C1=C\c1ccc(OC(=O)c2ccccc2)cc1`, the GI50 in the assay with SF-268, in the assay with OVCAR-8, in the assay on U-251, in the assay on NCI/ADR-RES, in the assay with SR and in the assay on UACC-62 was > 100 µM (inactive) each time. Moreover, the GI50 in the assay on LOX IMVI, with MDA-MB-231, in the assay on SF-539, in the assay on UO-31, in the assay with HT-29 and in the assay on 786-0 was > 100 µM (inactive) in each case. Besides, the GI50 with SK-MEL-2, with SW-620, in the assay with SK-MEL-5, in the assay on MDA-MB-435, in the assay on MDA-N and in the assay on CAKI-1 was > 100 µM (inactive) throughout. The GI50 with CCRF-CEM is > 100 µM (inactive); in the assay on SNB-75 it was 93.3 µM (inactive).

As to `COc1cccc2c1CCc1cc3c(N)nc(N)nc3nc1-2`, the GI50 was 6.73 µM (inactive) in the assay on SF-268; 3.31 µM (inactive) in the assay with OVCAR-8; 2.67 µM (inactive) in the assay with U-251; 16.7 µM (inactive) in the assay on NCI/ADR-RES; 3.41 µM (inactive) in the assay on SR; 7.23 µM (inactive) with UACC-62. Also, the GI50 with LOX IMVI is 0.34 µM (active); in the assay on MDA-MB-231, 3.09 µM (inactive); with SF-539 it was 1.79 µM (inactive); in the assay with UO-31 it was 3.21 µM (inactive); in the assay with HT-29, 2.41 µM (inactive); with 786-0, 2.08 µM (inactive). Further, the GI50 in the assay on SK-MEL-2 was 13.3 µM (inactive); with SW-620, 3.65 µM (inactive); in the assay on SK-MEL-5 it was 3.09 µM (inactive); in the assay with MDA-MB-435 it was 5.3 µM (inactive); in the assay on MDA-N, 2.94 µM (inactive); with CAKI-1 it was 5.45 µM (inactive). For the same compound, the GI50 in the assay with CCRF-CEM is 2.55 µM (inactive); with SNB-75, 5.98 µM (inactive).

Regarding `Cn1cc(-c2cnc(-c3cn(C)c4ccccc34)cn2)c2ccccc21`, the GI50 in the assay with SF-268 was 5.48 µM (inactive); in the assay with OVCAR-8 it was 4.89 µM (inactive); with U-251 it was 4.06 µM (inactive); with NCI/ADR-RES it was 2.96 µM (inactive); in the assay on SR, 3.09 µM (inactive); in the assay with UACC-62, 2.86 µM (inactive). Moreover, the GI50 in the assay with LOX IMVI was 5.2 µM (inactive); in the assay on MDA-MB-231, 15 µM (inactive); in the assay on SF-539, 3.37 µM (inactive); in the assay with UO-31, 4.79 µM (inactive); in the assay on HT-29, 4.78 µM (inactive); with 786-0 it was 4.6 µM (inactive). Also, the GI50 in the assay with SK-MEL-2 was 5.87 µM (inactive); in the assay on SW-620, 3.19 µM (inactive); with SK-MEL-5, 0.288 µM (active); with MDA-MB-435, 0.811 µM (active); in the assay with MDA-N, 0.767 µM (active); with CAKI-1 it was 6.67 µM (inactive). The GI50 with CCRF-CEM is 0.448 µM (active); in the assay with SNB-75, 2.77 µM (inactive).

For the compound `CC[C@]1(c2ccc3c(c2)OCO3)C=[N+]([O-])O[C@H](OC2CCCC2(c2ccccc2)c2ccccc2)[C@@H]1OC(C)=O` (stereo not given in full), the GI50 was 2.4 µM (inactive) in the assay on SF-268; 1.95 µM (inactive) in the assay on OVCAR-8; 3.62 µM (inactive) with U-251; 1.92 µM (inactive) in the assay with NCI/ADR-RES; 2.22 µM (inactive) in the assay on SR; 1.95 µM (inactive) with UACC-62. In addition, the GI50 in the assay with LOX IMVI is 2.09 µM (inactive); with MDA-MB-231, 4.01 µM (inactive); in the assay with SF-539 it was 4.22 µM (inactive); in the assay with UO-31, 2.05 µM (inactive); in the assay on HT-29, 1.68 µM (inactive); with 786-0, 1.77 µM (inactive). The GI50 was 2.38 µM (inactive) in the assay with SK-MEL-2; 2.96 µM (inactive) in the assay on SW-620; 1.56 µM (inactive) in the assay on SK-MEL-5; 1.8 µM (inactive) with MDA-MB-435; 3.83 µM (inactive) in the assay with MDA-N; 3.42 µM (inactive) with CAKI-1. For the same compound, the GI50 in the assay with CCRF-CEM was 2.86 µM (inactive); in the assay on SNB-75, 2.16 µM (inactive).

Regarding `Oc1ncc(N(CCCl)CCCl)c(O)n1` [URACIL MUSTARD], the GI50 in the assay on SF-268 is 12.7 µM (inactive); in the assay with OVCAR-8 it was 42.2 µM (inactive); in the assay with U-251, 15.2 µM (inactive); in the assay on NCI/ADR-RES, 23.7 µM (inactive); in the assay with SR it was 1.58 µM (inactive); in the assay with UACC-62, 6.7 µM (inactive). Moreover, the GI50 in the assay on LOX IMVI is 14.1 µM (inactive); in the assay on MDA-MB-231, 81.3 µM (inactive); in the assay on SF-539 it was 11.7 µM (inactive); in the assay with UO-31 it was 47.3 µM (inactive); with HT-29, 69.8 µM (inactive); with 786-0 it was 10 µM (inactive). Further, the GI50 in the assay with SK-MEL-2 was > 97.3 µM (inactive); in the assay on SW-620, 35.3 µM (inactive); with SK-MEL-5, 41.8 µM (inactive); in the assay with MDA-MB-435 it was 64 µM (inactive); in the assay with MDA-N it was 60.4 µM (inactive); in the assay with CAKI-1 it was 4.33 µM (inactive). Besides, the GI50 with CCRF-CEM is 2.1 µM (inactive); in the assay with SNB-75, 26.3 µM (inactive).
